Results from patent US10239844B2, “Disubstituted triazole analogs” (BioVentures, LLC, priority 2014, dated 2019).

How the values were obtained:
[1] = test system: GFP expressing leukemia cells; assay: In vivo anti-leukemic activity, GFP expressing leukemia cells injected into mice; settings: 3.5 mg/kg
Protocol: The anti-leukemic activity of Compound 8 (FIG. 1) was evaluated in vivo. GFP expressing leukemia cells were injected into mice. One week post injection, mice were treated with Compound 8 at 3.5 mg/kg or DMSO (control) (FIG. 11A). Mice were imaged one week later. […] Further, bone marrow was isolated and the percent of GFP expressing AML stem cells was quantitated.

Hs578T cells = assay: Hs578T cell viability, Calcein-AM fluorescence, 48 hours; format: cell-based; settings: Homo sapiens, Hs-578T
Protocol: Some of these compounds were also screened against breast cancer cell line Hs578T. Briefly, Hs578T cells were seeded at 3,000 cells per well into 96-well plates and incubated overnight at 37° C. in DMEM (Dulbecco's Modified Eagle's Medium) containing 10% FBS (Fetal Bovine Serum) medium. The following day, various concentrations of combretastin analogs, or vehicle, were added to each plate and the plates were then incubated for 48 hours. Then, cells were washed twice with Dulbecco's Phosphate-Buffered Saline (DPBS) pH 7.4 and incubated with 2 μM Calcein-AM for 30 minutes at 25° C. Fluorescence was measured using a 490 nm excitation filter and a 520 nm emission filter. The fluorescence intensity is proportional to the number of viable cells. The fluorescence intensity of control (untreated) cells was taken as 100% viability. The relative cell viability compared to control was calculated by using the following formula: Cell viability (%)=Fluorescence intensity of treated cells/Fluorescence intensity of untreated cells×100.
The GI50 values (growth inhibition; anti-proliferation) were calculated using GraphPad prism (San Diego, Calif.) by plotting the percent cell viability as a function of the compound concentration and fit to a four-parameter logistic model. The data represents mean±standard deviation of three independent experiments.

melting point [°C]	SMILES	tumor shrinkage, imaging of GFP expressing cells (FIG. 11C) ([1]; imaged one week after treatment, relative to DMSO and untreated mice)	percent of GFP expressing AML stem cells in bone marrow (FIG. 10) ([1]; isolated bone marrow)	average radiance (FIG. 11B) ([1]; versus DMSO control)	GI50 (Hs578T cells) [nM]
	COc1cc(-c2n[nH]nc2-c2ccc3c(c2)OCO3)cc(OC)c1OC [Compound 8, 4-(benzo[d][1,3]dioxol-5-yl)-5-(3,4,5-trimethoxyphenyl)-2H-1,2,3-triazole]	significant tumor shrinkage	significant reduction in AML stem cells	significant reduction in leukemia cells	
189 to 191	COc1cc(-c2n[nH]nc2-c2cc3ccccc3s2)cc(OC)c1OC [PNR-7-74, 4-(benzo[b]thiophen-2-yl)-5-(3,4,5-trimethoxyphenyl)-2H-1,2,3-triazole]				10.3
158 to 160	COc1cc(-c2n[nH]nc2-c2cc3ccccc3o2)cc(OC)c1OC [PNR-7-81, 4-(benzofuran-2-yl)-5-(3,4,5-trimethoxyphenyl)-2H-1,2,3-triazole]				20.3
	COc1cc(OC)cc(-c2n[nH]nc2-c2cc3ccccc3s2)c1 [PNR-7-83, 4-(benzo[b]thiophen-2-yl)-5-(3,5-dimethoxyphenyl)-2H-1,2,3-triazole]				66.5
